Structures are written as SMILES.

Assay [1] addresses T1, Interleukin-1 receptor-associated kinase 3 (Homo sapiens) (UniProt Q9Y616).
T1 sequence (whole entry): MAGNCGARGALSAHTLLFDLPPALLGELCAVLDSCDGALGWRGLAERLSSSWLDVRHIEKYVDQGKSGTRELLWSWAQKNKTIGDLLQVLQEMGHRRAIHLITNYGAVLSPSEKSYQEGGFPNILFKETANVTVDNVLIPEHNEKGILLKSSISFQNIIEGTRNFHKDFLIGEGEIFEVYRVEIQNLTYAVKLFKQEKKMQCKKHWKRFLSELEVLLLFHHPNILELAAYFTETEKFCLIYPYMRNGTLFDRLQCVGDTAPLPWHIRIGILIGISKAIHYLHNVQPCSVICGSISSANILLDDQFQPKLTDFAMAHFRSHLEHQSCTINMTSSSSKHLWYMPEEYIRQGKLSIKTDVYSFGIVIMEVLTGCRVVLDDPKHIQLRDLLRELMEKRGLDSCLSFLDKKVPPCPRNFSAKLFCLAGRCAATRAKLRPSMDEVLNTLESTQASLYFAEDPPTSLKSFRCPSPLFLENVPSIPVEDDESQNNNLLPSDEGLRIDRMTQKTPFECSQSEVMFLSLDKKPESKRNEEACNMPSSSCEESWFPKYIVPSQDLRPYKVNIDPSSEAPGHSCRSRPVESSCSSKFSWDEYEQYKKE
The following applies: at 10 µM.

The target in assay [2] is T2, Serine/threonine-protein kinase D3 (Homo sapiens) (UniProt O94806).
T2 sequence (whole entry): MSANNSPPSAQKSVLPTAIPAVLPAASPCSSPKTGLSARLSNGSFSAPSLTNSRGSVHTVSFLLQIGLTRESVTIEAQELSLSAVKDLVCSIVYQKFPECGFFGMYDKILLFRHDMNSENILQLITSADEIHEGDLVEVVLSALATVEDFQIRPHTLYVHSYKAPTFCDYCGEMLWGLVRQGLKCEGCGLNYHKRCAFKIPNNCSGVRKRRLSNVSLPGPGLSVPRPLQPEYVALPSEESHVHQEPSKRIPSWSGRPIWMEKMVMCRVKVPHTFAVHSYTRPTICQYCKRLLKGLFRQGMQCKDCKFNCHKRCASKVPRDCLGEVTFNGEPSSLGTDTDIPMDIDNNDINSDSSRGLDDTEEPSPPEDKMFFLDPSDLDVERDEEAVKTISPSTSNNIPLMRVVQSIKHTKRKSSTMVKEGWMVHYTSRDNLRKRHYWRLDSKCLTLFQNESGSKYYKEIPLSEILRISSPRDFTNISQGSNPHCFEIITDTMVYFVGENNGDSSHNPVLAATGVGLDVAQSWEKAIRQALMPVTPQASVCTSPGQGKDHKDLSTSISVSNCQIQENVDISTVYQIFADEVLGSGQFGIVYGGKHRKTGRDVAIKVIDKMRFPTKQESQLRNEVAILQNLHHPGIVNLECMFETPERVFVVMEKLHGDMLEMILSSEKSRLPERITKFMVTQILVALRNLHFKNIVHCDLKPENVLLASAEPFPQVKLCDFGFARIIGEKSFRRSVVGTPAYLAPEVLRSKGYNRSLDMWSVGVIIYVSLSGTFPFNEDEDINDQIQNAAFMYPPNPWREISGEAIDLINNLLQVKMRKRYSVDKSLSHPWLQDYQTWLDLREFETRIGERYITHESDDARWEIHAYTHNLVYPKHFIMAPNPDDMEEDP
The following applies: at 10 µM.

The target of another assay is Focal adhesion kinase 1 (Homo sapiens, UniProt Q05397). Nature of the assay: Selectivity interaction (KinaseProfiler screening (Millipore)) EUB0000601a PTK2. The following applies: at 3 µM.
For assay [3], the target named is T3, Mitogen-activated protein kinase 15 (Homo sapiens) (UniProt Q8TD08).
T3 sequence (whole entry): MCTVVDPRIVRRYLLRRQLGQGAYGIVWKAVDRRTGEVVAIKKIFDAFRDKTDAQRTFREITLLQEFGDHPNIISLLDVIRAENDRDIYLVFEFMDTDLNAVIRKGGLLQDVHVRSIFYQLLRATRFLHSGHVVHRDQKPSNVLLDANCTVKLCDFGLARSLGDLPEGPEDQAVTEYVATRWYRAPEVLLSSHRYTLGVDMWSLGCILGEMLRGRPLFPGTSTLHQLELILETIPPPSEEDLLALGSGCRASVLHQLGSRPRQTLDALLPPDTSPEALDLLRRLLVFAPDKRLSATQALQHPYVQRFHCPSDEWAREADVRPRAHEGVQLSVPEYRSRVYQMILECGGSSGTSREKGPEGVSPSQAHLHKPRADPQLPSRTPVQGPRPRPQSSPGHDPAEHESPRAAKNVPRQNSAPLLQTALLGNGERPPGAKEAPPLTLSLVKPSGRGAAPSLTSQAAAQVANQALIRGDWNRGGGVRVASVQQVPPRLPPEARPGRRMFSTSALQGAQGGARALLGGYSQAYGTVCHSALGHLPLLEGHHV
In words: Selectivity interaction (Kinase panel (literature)) EUB0001199aCl MAPK15. The following applies: at 1 µM.

Assay [4] addresses T4, Calcium/calmodulin-dependent protein kinase type IV (Homo sapiens) (UniProt Q16566).
T4 sequence (whole entry): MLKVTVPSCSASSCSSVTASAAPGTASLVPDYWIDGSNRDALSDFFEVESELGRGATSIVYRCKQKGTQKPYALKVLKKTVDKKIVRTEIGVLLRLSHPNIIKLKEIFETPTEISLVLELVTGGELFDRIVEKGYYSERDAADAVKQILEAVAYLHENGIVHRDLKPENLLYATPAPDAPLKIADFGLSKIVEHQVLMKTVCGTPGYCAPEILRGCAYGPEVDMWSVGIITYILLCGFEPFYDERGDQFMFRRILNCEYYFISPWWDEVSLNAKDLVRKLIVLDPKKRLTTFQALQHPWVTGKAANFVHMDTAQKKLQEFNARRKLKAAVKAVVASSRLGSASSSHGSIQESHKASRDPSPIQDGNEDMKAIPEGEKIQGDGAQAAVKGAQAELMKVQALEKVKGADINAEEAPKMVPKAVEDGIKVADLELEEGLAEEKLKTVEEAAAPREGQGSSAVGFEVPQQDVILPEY
Nature of the assay: Selectivity interaction (Ambit KINOMEscan and KiNATiv profiling in Jurkat cells) EUB0000090b CAMK4. The class given is cell-based. To be noted: at 1 µM.

The test system of assay [5] is Fibroblast growth factor receptor 3 (Homo sapiens), P22607 [G697C]. Nature of the assay: (§1) Selectivity interaction (KinomeScan (DiscoverX)) EUB0001049a FGFR3. The following applies: at 1 µM.
The target in assay [6] is Fibroblast growth factor receptor 3 (Homo sapiens, UniProt P22607). The assay is described as §1. The following applies: at 1 µM.
In assay [7] the target is Receptor tyrosine-protein kinase erbB-3 (Homo sapiens) (UniProt P21860). Nature of the assay: Selectivity interaction (KinomeScan (DiscoverX)) EUB0000229b ERBB3. The following applies: at 10 µM.
Chain of Receptor tyrosine-protein kinase erbB-3 (Homo sapiens) (P21860 whole entry): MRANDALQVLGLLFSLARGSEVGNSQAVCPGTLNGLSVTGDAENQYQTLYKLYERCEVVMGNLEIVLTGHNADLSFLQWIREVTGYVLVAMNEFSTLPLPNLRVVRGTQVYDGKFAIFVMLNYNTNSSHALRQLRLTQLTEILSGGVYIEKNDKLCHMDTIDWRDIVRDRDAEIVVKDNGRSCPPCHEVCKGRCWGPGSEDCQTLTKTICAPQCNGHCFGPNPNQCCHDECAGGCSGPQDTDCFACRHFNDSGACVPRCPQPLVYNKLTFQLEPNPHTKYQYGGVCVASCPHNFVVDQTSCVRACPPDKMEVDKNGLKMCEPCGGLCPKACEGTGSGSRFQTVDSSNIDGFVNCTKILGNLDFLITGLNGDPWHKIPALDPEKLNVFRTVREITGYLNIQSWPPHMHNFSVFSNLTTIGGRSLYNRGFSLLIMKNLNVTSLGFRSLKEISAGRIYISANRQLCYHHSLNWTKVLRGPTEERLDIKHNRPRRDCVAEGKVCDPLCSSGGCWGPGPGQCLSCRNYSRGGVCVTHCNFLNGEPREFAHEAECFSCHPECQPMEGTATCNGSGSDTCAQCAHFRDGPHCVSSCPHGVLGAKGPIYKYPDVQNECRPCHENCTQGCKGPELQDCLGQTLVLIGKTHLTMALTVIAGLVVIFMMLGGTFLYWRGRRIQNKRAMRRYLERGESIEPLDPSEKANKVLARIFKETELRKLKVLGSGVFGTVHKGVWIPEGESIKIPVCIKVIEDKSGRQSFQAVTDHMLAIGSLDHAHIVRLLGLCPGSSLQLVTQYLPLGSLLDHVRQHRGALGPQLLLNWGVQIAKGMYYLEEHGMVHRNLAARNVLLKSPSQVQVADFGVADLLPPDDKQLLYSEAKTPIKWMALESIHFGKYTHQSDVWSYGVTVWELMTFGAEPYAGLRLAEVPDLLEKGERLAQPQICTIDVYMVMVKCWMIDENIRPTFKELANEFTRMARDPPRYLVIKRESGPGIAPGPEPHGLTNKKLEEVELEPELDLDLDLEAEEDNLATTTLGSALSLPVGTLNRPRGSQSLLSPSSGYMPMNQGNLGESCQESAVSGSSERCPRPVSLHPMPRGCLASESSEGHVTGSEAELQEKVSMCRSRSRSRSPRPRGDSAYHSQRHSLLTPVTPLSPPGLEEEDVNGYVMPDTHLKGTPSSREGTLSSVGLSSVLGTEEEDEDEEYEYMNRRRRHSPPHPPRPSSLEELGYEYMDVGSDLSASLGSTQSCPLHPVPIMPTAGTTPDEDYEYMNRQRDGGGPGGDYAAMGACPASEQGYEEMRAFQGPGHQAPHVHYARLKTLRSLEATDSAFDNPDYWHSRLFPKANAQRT

Chain of Fibroblast growth factor receptor 3 (P22607 23-806 limits assumed): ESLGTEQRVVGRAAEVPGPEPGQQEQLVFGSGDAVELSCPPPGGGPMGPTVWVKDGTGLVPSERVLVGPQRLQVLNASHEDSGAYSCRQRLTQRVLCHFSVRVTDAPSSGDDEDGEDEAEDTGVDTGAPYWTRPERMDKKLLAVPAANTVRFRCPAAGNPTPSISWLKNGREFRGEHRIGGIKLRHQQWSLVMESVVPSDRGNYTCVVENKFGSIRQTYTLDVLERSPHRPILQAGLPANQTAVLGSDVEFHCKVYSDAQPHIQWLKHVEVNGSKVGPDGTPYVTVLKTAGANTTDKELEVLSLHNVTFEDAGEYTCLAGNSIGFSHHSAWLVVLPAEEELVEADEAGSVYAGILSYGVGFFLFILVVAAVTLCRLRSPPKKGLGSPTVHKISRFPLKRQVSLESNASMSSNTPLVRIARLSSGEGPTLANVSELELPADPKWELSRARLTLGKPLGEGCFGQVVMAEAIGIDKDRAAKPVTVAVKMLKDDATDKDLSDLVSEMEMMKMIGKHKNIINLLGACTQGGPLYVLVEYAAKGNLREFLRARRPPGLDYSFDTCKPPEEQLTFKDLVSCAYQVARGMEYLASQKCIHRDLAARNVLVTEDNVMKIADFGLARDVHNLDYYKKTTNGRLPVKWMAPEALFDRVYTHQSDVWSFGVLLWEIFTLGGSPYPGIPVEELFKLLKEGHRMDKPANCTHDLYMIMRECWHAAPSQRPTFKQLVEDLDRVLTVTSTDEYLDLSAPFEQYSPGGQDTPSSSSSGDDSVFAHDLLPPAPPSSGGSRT
Chain of Fibroblast growth factor receptor 3 (Homo sapiens), P22607 [G697C] (P22607 whole entry G697C): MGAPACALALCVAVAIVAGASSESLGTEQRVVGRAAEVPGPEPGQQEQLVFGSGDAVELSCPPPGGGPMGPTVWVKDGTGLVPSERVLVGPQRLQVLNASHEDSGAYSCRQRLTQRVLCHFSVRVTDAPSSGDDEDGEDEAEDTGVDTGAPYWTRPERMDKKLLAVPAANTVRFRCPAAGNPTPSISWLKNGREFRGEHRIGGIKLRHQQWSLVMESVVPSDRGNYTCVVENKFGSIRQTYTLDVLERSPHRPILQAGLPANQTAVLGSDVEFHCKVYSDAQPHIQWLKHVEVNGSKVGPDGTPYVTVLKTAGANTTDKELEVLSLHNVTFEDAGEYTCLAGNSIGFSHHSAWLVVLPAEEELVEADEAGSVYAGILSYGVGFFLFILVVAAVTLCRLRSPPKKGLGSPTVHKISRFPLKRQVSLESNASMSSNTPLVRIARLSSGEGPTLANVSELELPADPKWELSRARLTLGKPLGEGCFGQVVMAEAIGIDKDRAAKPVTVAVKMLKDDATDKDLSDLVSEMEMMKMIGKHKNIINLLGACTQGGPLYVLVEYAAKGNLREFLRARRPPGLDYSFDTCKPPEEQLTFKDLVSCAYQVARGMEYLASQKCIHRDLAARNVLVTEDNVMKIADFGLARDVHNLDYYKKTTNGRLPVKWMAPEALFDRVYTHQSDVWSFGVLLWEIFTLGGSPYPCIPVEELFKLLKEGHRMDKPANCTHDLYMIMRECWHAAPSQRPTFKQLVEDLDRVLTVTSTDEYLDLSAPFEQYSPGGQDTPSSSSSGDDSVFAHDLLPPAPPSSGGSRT
Chain of Focal adhesion kinase 1 (Q05397 2-1052 limits assumed): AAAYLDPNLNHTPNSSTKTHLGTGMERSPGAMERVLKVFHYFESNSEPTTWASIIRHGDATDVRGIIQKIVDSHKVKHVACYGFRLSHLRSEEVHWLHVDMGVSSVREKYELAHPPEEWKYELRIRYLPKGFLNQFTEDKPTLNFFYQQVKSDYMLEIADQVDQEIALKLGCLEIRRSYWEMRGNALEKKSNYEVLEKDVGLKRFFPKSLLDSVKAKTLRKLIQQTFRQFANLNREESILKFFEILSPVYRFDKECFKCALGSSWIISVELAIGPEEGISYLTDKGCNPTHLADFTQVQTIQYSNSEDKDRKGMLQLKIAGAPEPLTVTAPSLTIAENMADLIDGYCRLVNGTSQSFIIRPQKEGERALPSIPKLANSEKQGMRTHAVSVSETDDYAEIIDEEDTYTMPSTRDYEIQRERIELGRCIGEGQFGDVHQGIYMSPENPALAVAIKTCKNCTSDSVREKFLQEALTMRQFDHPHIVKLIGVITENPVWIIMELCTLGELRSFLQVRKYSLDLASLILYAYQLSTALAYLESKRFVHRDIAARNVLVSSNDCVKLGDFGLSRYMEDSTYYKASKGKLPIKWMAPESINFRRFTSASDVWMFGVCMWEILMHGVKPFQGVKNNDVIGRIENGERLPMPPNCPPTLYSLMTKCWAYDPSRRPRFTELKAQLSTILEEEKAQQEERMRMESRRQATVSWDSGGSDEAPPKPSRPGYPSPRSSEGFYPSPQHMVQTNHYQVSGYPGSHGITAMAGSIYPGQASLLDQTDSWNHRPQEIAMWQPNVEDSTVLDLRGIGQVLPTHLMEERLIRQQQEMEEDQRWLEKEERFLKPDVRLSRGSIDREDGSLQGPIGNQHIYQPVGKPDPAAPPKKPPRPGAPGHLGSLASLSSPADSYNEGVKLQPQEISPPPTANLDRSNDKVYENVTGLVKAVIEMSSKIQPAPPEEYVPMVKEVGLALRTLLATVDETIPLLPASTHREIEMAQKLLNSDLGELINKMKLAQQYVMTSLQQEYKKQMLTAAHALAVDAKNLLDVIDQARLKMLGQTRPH

On to `Cc1cc([C@@H](C)Nc2ccccc2C(=O)O)c2nc(N3CCOCC3)cc(=O)n2c1` [AZD-6482], for which the % of control came to 58% in assay [1] and 100% in assay [2].

Turning to `CCc1cc(Nc2nccc(-c3c(-c4ccc(OC)c(C(=O)Nc5c(F)cccc5F)c4)nc4ccccn34)n2)c(OC)cc1N1CCC(N2CCN(S(C)(=O)=O)CC2)CC1`, at Focal adhesion kinase 1, the % of inhibition is 51%.

Compound `CN1Cc2nccc(-c3cn(C)nc3-c3ccc(F)cc3)c2C1=O` displayed a % of inhibition in assay [3] of 10%.

Consider `CN(C)C/C=C/C(=O)Nc1ccc(C(=O)N2CCCC(Nc3ncc(Cl)c(-c4c[nH]c5ccccc45)n3)C2)cc1` (stereo not drawn), for which the % of control in assay [4] turned out to be 69%.

With `COc1cc(Nc2nc(C)cc(-c3cnn4nc(OC)ccc34)n2)cc(C(F)(F)F)c1`, the % of control in assay [5] and in assay [6] was 96% in each case.

Take `COc1cc(N(C)c2ccnc3ccc(C(F)(F)F)cc23)cc(OC)c1OC`: in assay [7], the % binding came to 93%.

The values are drawn from ChEMBL document CHEMBL5465560, “Selectivity Literature for EUbOPEN Chemogenomic Library” (2024).
